Structures are written as SMILES.

The target in the assay is T1, recombinant human AKR1C3 (Aldo-keto reductase family 1 member C3) (Homo sapiens, UniProt P42330).
T1 construct: GST (cleaved yes); made in house; host or cells: E. coli
T1 sequence (P42330 1-323): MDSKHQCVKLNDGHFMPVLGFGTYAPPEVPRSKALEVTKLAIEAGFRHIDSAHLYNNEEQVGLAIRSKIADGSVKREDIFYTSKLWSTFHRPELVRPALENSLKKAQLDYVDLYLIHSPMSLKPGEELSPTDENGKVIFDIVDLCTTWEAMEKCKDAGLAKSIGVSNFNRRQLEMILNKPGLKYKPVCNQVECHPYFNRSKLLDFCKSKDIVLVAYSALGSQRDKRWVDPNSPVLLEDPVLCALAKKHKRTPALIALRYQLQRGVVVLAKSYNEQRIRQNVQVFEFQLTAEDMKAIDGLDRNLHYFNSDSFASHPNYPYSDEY
In words: In Vitro Assay 1: AKR1C3-inhibitory activity (Coumberone to Coumberol fluorescence assay). The following applies: recombinant enzyme, Coumberone 0.3 μM, NADPH 10 μM, 15 min pre-incubation, 4-parameter fit; average or median values. In kind it is biochemical. On the procedure:
In Vitro Assay 1: AKR1C3-Inhibitory Activity
The AKR1C3-inhibitory activity of the substances of the present invention was measured in the AKR1C3 assay described in the paragraphs below.
Essentially, the enzyme activity is measured by quantification of the Coumberol from Coumberone (Halim, M., Yee, D. J., and Sames, D., J. AM. CHEM. SOC. 130, 14123-14128 (2008) and Yee, D. J., Balsanek, V., Bauman, D. R., Penning, T. M., and Sames, D., Proc. Natl. Acad. Sci. USA 103, 13304-13309 (2006)). In this test, the increase of the highly fluorescent Coumberol by NADPH- (nicotinamide adenine dinucleotide phosphate)-dependent reduction of the non-fluorescent Coumberone by AKR1C3 can be determined.
The enzyme used was recombinant human AKR1C3 (Aldo-keto reductase family 1 member C3) (GenBank Accession No. NM_003739). This was expressed in E. coli as GST (glutathione S transferase) fusion protein and purified by glutathione Sepharose affinity chromatography. The GST was removed by digestion with thrombin and subsequent size exclusion chromatography (Dufort, I., Rheault, P., Huang, X F., Soucy, P., and Luu-The, V., Endocrinology 140, 568-574 (1999)).
For the assay, 50 nl of a 100-fold concentrated solution of the test substance in DMSO were pipetted into a black low-volume 384-well microtiter plate (Greiner Bio-One, Frickenhausen, Germany), 2.5 μl of a solution of AKR1C3 in assay buffer [50 mM potassium phosphate buffer pH 7, 1 mM DTT, 0.0022% (w/v) Pluronic F-127, 0.01% BSA (w/v) and protease inhibitor cocktail (Complete, EDTA-free Protease Inhibitor Cocktail from Roche)] were added and the mixture was incubated for 15 min to allow pre-binding of the substances to the enzyme prior to the enzyme reaction. The enzyme reaction was then started by addition of 2.5 μl of a solution of NADPH (20 μM→final concentration in 5 μl of assay volume is 10 μM) and Coumberone (0.6 μM→final concentration in 5 μl of assay volume is 0.3 μM) in assay buffer, and the resulting mixture was incubated at […] for the reaction time of typically 90 min. The concentration of the AKR1C3 and the reaction time was adapted to the respective activity of the enzyme preparation and adjusted such that the assay was carried out in the linear range.
Typical AKR1C3 concentrations were in the region of 1 nM. The reaction was stopped by addition of 2.5 μl of a stop solution consisting of the inhibitor EM-1404 [F. Labrie et al. U.S. Pat. No. 6,541,463, 2003] (3 μM→final concentration in 7.5 μl of assay volume is 1 μM). The fluorescence of the Coumberole was then measured at 520 nm (excitation at 380 nm) using a suitable measuring instrument (Pherastar from BMG Labtechnologies). The intensity of the fluorescence was used as a measure of the amount of Coumberole formed and thus of the enzyme activity of AKR1C3. The data were normalized (enzyme reaction without inhibitor—0% inhibition; all other assay components, but no enzyme=100% inhibition).
For `O=C(c1c[nH]nn1)N1C[C@@H]2[C@H](C1)[C@@H]1CC[C@H]2N1S(=O)(=O)c1ccccc1Cl` [Example 8, {(3aR,4S,7R,7aS)-8-[(2-chorophenyl)sulfonyl]octahydro-2H-4,7-epiminoisoindol-2-yl}(1H-1,2,3-triazol-4-yl)methanone], the IC50 (as a rule, the concentration that gives 50% inhibition) is 7 nM.
For `COc1cc(F)ccc1S(=O)(=O)N1[C@@H]2CC[C@H]1[C@@H]1CN(C(=O)c3cnn[nH]3)C[C@@H]12` [Example 65, {(3aR,4R,7S,7aS)-8-[(4-fluoro-2-methoxyphenyl)sulfonyl]octahydro-2H-4,7-epiminoisoindol-2-yl}(1H-1,2,3-triazol-5-yl)methanone] the value was 45 nM; for `O=C(c1cnn[nH]1)N1C[C@@H]2[C@H](C1)[C@H]1CC[C@@H]2N1S(=O)(=O)c1cc(F)ccc1Cl` [Example 63, {(3aR,4R,7S,7aS)-8-[(2-chloro-5-fluorophenyl)sulfonyl]octahydro-2H-4,7-epiminoisoindol-2-yl}(1H-1,2,3-triazol-5-yl)methanone], 2 nM.
With `O=C(c1c[nH]nn1)N1C[C@@H]2[C@H](C1)[C@@H]1CC[C@H]2N1S(=O)(=O)c1ccc(F)cc1F` [Example 13, {(3aR,4S,7R,7aS)-8-[(2,4-difluorophenyl)sulfonyl]octahydro-2H-4,7-epiminoisoindol-2-yl}(1H-1,2,3-triazol-4-yl)methanone], the IC50 is 102 nM.
For `O=C(c1c[nH]nn1)N1C[C@@H]2[C@H](C1)[C@@H]1CC[C@H]2N1S(=O)(=O)c1cccc(Cl)c1` [Example 3, {(3aR,4S,7R,7aS)-8-[(3-chlorophenyl)sulfonyl]octahydro-2H-4,7-epiminoisoindol-2-yl}(1H-1,2,3-triazol-4-yl)methanone] the value was 20 nM.
As to `COc1cc(C)ccc1S(=O)(=O)N1[C@@H]2CC[C@H]1[C@@H]1CN(C(=O)c3cnn[nH]3)C[C@@H]12` [Example 58, {(3aR,4R,7S,7aS)-8-[(2-methoxy-4-methylphenyl)sulfonyl]octahydro-2H-4,7-epiminoisoindol-2-yl}(1H-1,2,3-triazol-5-yl)methanone], the IC50 came out at 110 nM.
For `O=C(c1cnn[nH]1)N1[C@@H]2CC[C@H]1[C@H]1CN(S(=O)(=O)c3cc(Cl)cc(Cl)c3)C[C@H]12` [Example 28, {(3aR,4S,7R,7aS)-2-[(3,5-dichlorophenyl)sulfonyl]octahydro-1H-4,7-epiminoisoindol-8-yl}(1H-1,2,3-triazol-5-yl)methanone] the value was 21 nM; for `O=C(c1c[nH]nn1)N1C[C@@H]2[C@H](C1)[C@@H]1CC[C@H]2N1S(=O)(=O)c1ccccc1F` [Example 14, {(3aR,4S,7R,7aS)-8-[(2-fluorophenyl)sulfonyl]octahydro-2H-4,7-epiminoisoindol-2-yl}(1H-1,2,3-triazol-4-yl)methanone], 24 nM; for `O=C(c1cnn[nH]1)N1C[C@@H]2[C@H](C1)[C@H]1CC[C@@H]2N1S(=O)(=O)c1cccc2c1OCC2` [Example 62, [(3aR,4R,7S,7aS)-8-(2,3-dihydro-1-benzofuran-7-ylsulfonyl)octahydro-2H-4,7-epiminoisoindol-2-yl](1H-1,2,3-triazol-5-yl)methanone], 78 nM.
Regarding `COC(=O)c1cccc(S(=O)(=O)N2[C@@H]3CC[C@H]2[C@@H]2CN(C(=O)c4cnn[nH]4)C[C@@H]23)c1` [Example 56, methyl 3-{[(3aR,4R,7S,7aS)-2-(1H-1,2,3-triazol-5-ylcarbonyl)octahydro-1H-4,7-epiminoisoindol-8-yl]sulfonyl}benzoate], the IC50 was found to be 798 nM.
Consider `O=C(c1c[nH]nn1)N1C[C@@H]2[C@H](C1)[C@@H]1CC[C@H]2N1S(=O)(=O)c1cc(F)ccc1F` [Example 18, {(3aR,4S,7R,7aS)-8-[(2,5-difluorophenyl)sulfonyl]octahydro-2H-4,7-epiminoisoindol-2-yl}(1H-1,2,3-triazol-4-yl)methanone], for which the concentration for half-maximal inhibition (IC50) worked out at 19 nM.
For `O=C(c1cnn[nH]1)N1C[C@@H]2[C@H](C1)[C@H]1CC[C@@H]2N1S(=O)(=O)c1ccc(Br)cc1` [Example 30, ((3aR,4R,7S,7aS)-8-[(4-bromophenyl)sulfonyl]octahydro-2H-4,7-epiminoisoindol-2-yl)(1H-1,2,3-triazol-5-yl)methanone] the value was 193 nM; for `O=C(c1cnn[nH]1)N1C[C@@H]2[C@H](C1)[C@H]1CC[C@@H]2N1S(=O)(=O)c1ccc2c(c1)OCO2` [Example 57, [(3aR,4R,7S,7aS)-8-(1,3-benzodioxol-5-ylsulfonyl)octahydro-2H-4,7-epiminoisoindol-2-yl](1H-1,2,3-triazol-5-yl)methanone], 267 nM.
As for `O=C(c1cnn[nH]1)N1C[C@@H]2[C@H](C1)[C@H]1CC[C@@H]2N1S(=O)(=O)c1ccc(Cl)cc1` [Example 31, {(3aR,4R,7S,7aS)-8-[(4-chorophenyl)sulfonyl]octahydro-2H-4,7-epiminoisoindol-2-yl}(1H-1,2,3-triazol-5-yl)methanone], the figure is 174 nM; as for `COc1ccccc1S(=O)(=O)N1[C@@H]2CC[C@H]1[C@@H]1CN(C(=O)c3cnn[nH]3)C[C@@H]12` [Example 54, {(3aR,4R,7S,7aS)-8-[(2-methoxyphenyl)sulfonyl]octahydro-2H-4,7-epiminoisoindol-2-yl}(1H-1,2,3-triazol-5-yl)methanone], 13 nM.
Turning to `COc1ccc(S(=O)(=O)N2[C@@H]3CC[C@H]2[C@@H]2CN(C(=O)c4cnn[nH]4)C[C@@H]23)cc1OC` [Example 41, {(3aR,4R,7S,7aS)-8-[(3,4-dimethoxyphenyl)sulfonyl]octahydro-2H-4,7-epiminoisoindol-2-yl}(1H-1,2,3-triazol-5-yl)methanone], the IC50 was found to be 731 nM.
As to `NC(=O)c1cccc(S(=O)(=O)N2[C@@H]3CC[C@H]2[C@@H]2CN(C(=O)c4cnn[nH]4)C[C@@H]23)c1` [Example 60, 3-{[(3aR,4R,7S,7aS)-2-(1H-1,2,3-triazol-5-ylcarbonyl)octahydro-1H-4,7-epiminoisoindol-8-yl]sulfonyl}benzamide], the IC50 was determined as 501 nM.
For `O=C(c1cnn[nH]1)N1[C@@H]2CC[C@H]1[C@H]1CN(S(=O)(=O)c3cccc(F)c3)C[C@H]12` [Example 27, {(3aR,4S,7R,7aS)-2-[(3-fluorophenyl)sulfonyl]octahydro-1H-4,7-epiminoisoindol-8-yl}(1H-1,2,3-triazol-5-yl)methanone] the value was 2 nM; for `O=C(c1c[nH]nn1)N1C[C@@H]2[C@H](C1)[C@@H]1CC[C@H]2N1S(=O)(=O)c1cccc(Cl)c1C(F)(F)F` [Example 17, [(3aR,4S,7R,7aS)-8-{[3-chloro-2-(trifluoromethyl)phenyl]sulfonyl}octahydro-2H-4,7-epiminoisoindol-2-yl](1H-1,2,3-triazol-4-yl)methanone], 51 nM; for `N#Cc1c(Cl)cccc1S(=O)(=O)N1[C@@H]2CC[C@H]1[C@@H]1CN(C(=O)c3cnn[nH]3)C[C@@H]12` [Example 61, 2-chloro-6-{[(3aR,4R,7S,7aS)-2-(1H-1,2,3-triazol-5-ylcarbonyl)octahydro-1H-4,7-epiminoisoindol-8-yl]sulfonyl}benzonitrile], 84 nM.
Regarding `CCc1ccc(S(=O)(=O)N2[C@@H]3CC[C@H]2[C@@H]2CN(C(=O)c4cnn[nH]4)C[C@@H]23)cc1` [Example 38, {(3aR,4R,7S,7aS)-8-[(4-ethylphenyl)sulfonyl]octahydro-2H-4,7-epiminoisoindol-2-yl}(1H-1,2,3-triazol-5-yl)methanone], the IC50 came out at 193 nM.

(Values after patent US20200085791A1, “[(PHENYLSULFONYL)OCTAHYDRO-EPIMINOISOINDOL-YL](1H-1,2,3-TRIAZOL-5-YL)METHANONES” (Bayer Pharma Aktiengesellschaft, priority 2016, published 2020).)
